According to patent US9145372B2, “Pyridazine derivatives, compositions and methods for treating cognitive impairment” (AGENEBIO, INC., priority 2010, dated 2015):
Entries after “also recorded” stand apart in the source; their conditions may differ.

Molecular target: GABAA α5 receptor (Rattus norvegicus, UniProt P18508+P19969)
Assay: GABAA α5 receptor occupancy in vivo with Ro 15-4513 tracer (hippocampus vs cerebellum)
Excerpt: Adult male Long Evans rats (265-295 g, Charles River, Portage, Mich., n=4/group) were used for GABAA α5 receptor occupancy studies. Rats were individually housed in ventilated stainless-steel racks on a 12:12 light/dark cycle. Food and water were available ad libitum.
Ro 15-4513 was used as a receptor occupancy (RO) tracer for GABAA α5 receptor sites in the hippocampus and cerebellum. Ro 15-4513 was chosen as the tracer based on its selectivity for GABAA α5 receptors relative to other alpha subunit containing GABAA receptors and because it has been successfully used for GABAA α5 RO studies in animals and humans (see, e.g., Lingford-Hughes et al., J. Cereb. Blood Flow Metab. 22:878-89 (2002); Pym et al, Br. J. Pharmacol. 146: 817-825 (2005); and Maeda et al., Synapse 47: 200-208 (2003)). Ro 15-4513 (1 μg/kg), was dissolved in 25% hydroxyl-propyl beta-cyclodextrin and administered i.v. 20′ prior to the RO evaluations. Methyl 3,5-diphenylpyridazine-4-carboxylate (0.1-10 mg/kg) was synthesized by Nox Pharmaceuticals (India) and was dissolved in 25% hydroxyl-propyl beta-cyclodextrin and administered i.v. 15′ prior to tracer injection.
The rats were sacrificed by cervical dislocation 20′ post tracer injection. The whole brain was rapidly removed, and lightly rinsed with sterile water. Trunk blood was collected in EDTA coated eppendorf tubes and stored on wet ice until study completion. Hippocampus and cerebellum were dissected and stored in 1.5 ml eppendorf tubes, and placed on wet ice until tissue extraction. In a drug naïve rat, six cortical brain tissues samples were collected for use in generating blank and standard curve samples.
Acetonitrile containing 0.1% formic acid was added to each sample at a volume of four times the weight of the tissue sample. For the standard curve (0.1-30 ng/g) samples, a calculated volume of standard reduced the volume of acetonitrile. The sample was homogenized (FastPrep-24, Lysing Matrix D; 5.5 m/s, for 60 seconds or 7-8 watts power using sonic probe dismembrator; Fisher Scientific) and centrifuged for 16-minutes at 14,000 rpm. The (100 μl) supernatant solution was diluted by 300 μl of sterile water (pH 6.5). This solution was then mixed thoroughly and analyzed via LC/MS/MS for […] (tracer) and methyl 3,5-diphenylpyridazine-4-carboxylate.
Receptor occupancy was determined by the ratio method which compared occupancy in the hippocampus (a region of high GABAA α5 receptor density) with occupancy in the cerebellum (a region with low GABAA α5 receptor density) and additionally by a high dose of the GABAA α5 negative allosteric modulator L-655,708 (10 mg/kg, i.v.) to define full occupancy.

GABAA α5 receptor, sequence (P19969 32-464 limits assumed): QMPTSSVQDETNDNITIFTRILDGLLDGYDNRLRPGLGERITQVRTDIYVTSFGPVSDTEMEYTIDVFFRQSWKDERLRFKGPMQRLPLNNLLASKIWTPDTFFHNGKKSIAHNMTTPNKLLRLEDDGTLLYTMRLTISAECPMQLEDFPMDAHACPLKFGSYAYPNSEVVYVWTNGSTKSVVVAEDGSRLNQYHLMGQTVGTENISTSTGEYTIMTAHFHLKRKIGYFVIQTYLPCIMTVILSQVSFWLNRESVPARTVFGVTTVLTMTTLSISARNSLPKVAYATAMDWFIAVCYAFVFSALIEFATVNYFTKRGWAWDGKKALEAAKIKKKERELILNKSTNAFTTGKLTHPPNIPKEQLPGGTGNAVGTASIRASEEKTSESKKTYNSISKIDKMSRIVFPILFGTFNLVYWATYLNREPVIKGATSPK
GABAA α5 receptor, sequence (P18508 39-466): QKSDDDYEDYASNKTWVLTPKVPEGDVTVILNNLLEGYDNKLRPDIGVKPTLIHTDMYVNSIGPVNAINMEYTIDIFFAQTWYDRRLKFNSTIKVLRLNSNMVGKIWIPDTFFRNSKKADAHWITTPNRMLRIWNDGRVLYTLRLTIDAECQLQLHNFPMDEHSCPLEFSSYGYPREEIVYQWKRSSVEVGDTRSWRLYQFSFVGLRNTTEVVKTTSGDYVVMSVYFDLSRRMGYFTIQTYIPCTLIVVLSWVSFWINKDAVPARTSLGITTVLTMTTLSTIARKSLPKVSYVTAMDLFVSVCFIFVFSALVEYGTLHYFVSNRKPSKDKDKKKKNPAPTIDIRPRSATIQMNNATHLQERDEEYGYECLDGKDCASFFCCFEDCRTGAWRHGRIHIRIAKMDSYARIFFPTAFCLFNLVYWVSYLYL
GABAA α5 receptor, sequence (P63079 26-473 partner): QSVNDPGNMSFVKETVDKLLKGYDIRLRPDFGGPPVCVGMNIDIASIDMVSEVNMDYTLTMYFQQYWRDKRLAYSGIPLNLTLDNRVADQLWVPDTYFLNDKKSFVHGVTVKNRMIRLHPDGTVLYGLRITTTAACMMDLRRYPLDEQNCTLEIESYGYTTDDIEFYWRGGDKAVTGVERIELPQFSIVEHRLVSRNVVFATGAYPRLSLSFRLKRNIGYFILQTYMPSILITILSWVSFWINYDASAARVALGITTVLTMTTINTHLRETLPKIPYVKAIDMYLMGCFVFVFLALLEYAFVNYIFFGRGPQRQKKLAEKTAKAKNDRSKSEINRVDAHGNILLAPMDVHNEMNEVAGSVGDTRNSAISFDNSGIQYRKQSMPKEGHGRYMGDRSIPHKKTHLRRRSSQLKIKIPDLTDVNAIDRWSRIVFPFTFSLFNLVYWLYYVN

Compound: COC(=O)c1c(-c2ccccc2)cnnc1-c1ccccc1 [methyl 3,5-diphenylpyridazine-4-carboxylate]
- Ro 15-4513 binding in hippocampus (0.01-10 mg/kg, i.v.): blocked; also recorded: dose-dependently reduced
- cerebellum levels (binding) of Ro 15-4513 (0.01-10 mg/kg, i.v.): did not affect; also recorded: without affecting
- GABAA α5 receptors occupied at exposures behaviorally active in aged-impaired rats (hippocampus, FIG. 5): about 32%
- ED50 of receptor occupancy, ratio method (i.v., hippocampus/cerebellum ratio method): 1.8 mg/kg
- receptor occupancy at 10 mg/kg (rat, iv, read-out: GABAA α5 receptor occupancy): > 90%
- receptor occupancy at 1 mg/kg (rat, iv, read-out: receptor occupancy at an exposure of 180 ng/g in hippocampus): 32 to 39%
